In patent publication US20250034264A1, “REGULATING T CELL IMMUNE RESPONSE THROUGH IGF-I RECEPTOR (IGF-1R)” (The Regents of the University of Michigan, priority 2021, published 2025):

Legend:
Format in all cases: cell-based, human
[1] = test system: CD34+ fibrocytes; experiment: MHC II, CD80, CD86, PD-L1 expression in cultured fibrocytes (RT-qPCR, flow cytometry)
From the text: Fibrocyte and T cell isolation and cultivation. Peripheral blood mononuclear cells (PBMCs) were obtained from the venous circulation of clinic patients with GD, TAO or from healthy donors after obtaining informed consent. PBMCs were also obtained from Red Cross donor plasmapheresis filters. They were isolated by Ficoll-Histopaque (Sigma-Aldrich, St. Louis, MO) density gradient centrifugation. Fibrocytes were cultivated as described (Bucala, R, et al., (1994) Mol Med 1, 71-81, incorporated herein by reference in its entirety) except that culture substrata remained uncoated with fibronectin, as previously described (Douglas, R. S., et al. (2010) The Journal of clinical endocrinology and metabolism 95, 430-438). Isolated PBMCs (1×10^6-1×107) were inoculated in six-well plates covered with DMEM containing 10% FBS and incubated in 10-14 days. Adherent monolayers (<5% of the starting population) were washed with PBS and detached using accutase (Millipore) treatment, or mechanical scraping following accutase treatment. Culture purity was routinely confirmed by FACS analysis to be >90% fibrocytes by confirming the CD31^−CD45^+CD34^+CXCR4^+Col I^+TSFR^high phenotype.
Invariably, a small population of tightly adherent T cells were found in the fibrocyte cultures, consistent with the previous findings. Culture viability was routinely verified to be >90%. CD4^+ T cells were enriched using the CD4 isolation cocktail (Cat #0.130-096-533, Miltenyi Biotec, San Diego, CA) followed by negative selection using a magnetic column (Cat #0.130-042-401) according to manufacturer's protocol. Fibrocytes and isolated T cells were cultured and remained untreated or were incubated with human IgG isotype control (5 μg/ml) or teprotumumab (50 μg/mL) for 7 to 9 days. Single cell suspensions were stained with anti-human CD4, CD3, CD34, MHC-2, CD80, CD86, and PD-L1 (BD Biosciences) for 30 min, rinsed and fixed with CytoPerm/CytoFix (BD). They were then stained with anti-human INFγ and IL-17A for 20 min, rinsed, and subjected to the flow cytometry analysis. Gated CD34^+CXCR4^+ fibrocytes and CD4^+CD3^+ T cells were analyzed using quadrant settings based on negative isotype staining.
In vitro studies of CD34^+ fibrocytes and T cells PBMC and GD-OF monolayers were treated in vitro with human IgG isotype control (5 μg/ml), teprotumumab (50 μg/mL), H7 (5 μg/mL), linsitinib (1 μM), bTSH (5 mIU/mL), M22 (1 μg/mL), or IGF-1 (10 nM) for the intervals indicted in the figure legends in a 37° C., 5% CO2, humidified incubator until confluent. Brefeldin A (0.66 μl/ml), (Golgi Stop™, BD Biosciences), phorbol 12-myristate 13-acetate (PMA) (50 ng/ml) and ionomycin (1 μg/mL) were added for 5 h. Cells were rinsed with flow cytometry buffer (1×PBS, 0.5% BSA, 0.1% sodium azide) and stained with the relevant monoclonal antibodies.
(§1) Real-time PCR Confluent fibrocyte and GD-OF cultures were incubated with bTSH (5 mIU/mL), teprotumumab (50 μg/mL) or linsitinib (1 μM) for the time intervals indicated, washed with PBS and RNA was extracted with the Aurum Total RNA Mini Kit (cat. #732-6820, Bio-Rad, Hercules, CA). Cellular RNA (2 μg) was reverse transcribed using QuantiTect Reverse Transcription kit (cat. #205314, Qiagen (Germantown, MD) and real-time PCR was performed using an Applied Biosystems instrument with QuantiTect SYBR Green PCR kit (cat. no. 204143; Qiagen, Frederick, MD). Primer sequences were as follows.

[2] = test system: fibrocytes; experiment: IL-23p19 and IL-12p35 mRNA expression, real-time PCR; conditions: teprotumumab 50 μg/ml or linsitinib 1 μM, 7-9 d
Method: (§2) FIGS. 10A-10F are graphs showing the divergent effect of teprotumumab on bTSH induced IL-23p19 and IL-12p35 expression on fibrocytes and GD-OF. Rinsed fibrocyte and GD-OF monolayers were incubated with or without 50 μg/ml teprotumumab (FIGS. 10A and 10B) or 1 μM linsitinib (FIGS. 10C and 10D) and human Isotype IgG for 7-9 d, and bTSH (5 mIU/mL) was added for 6 h. Harvested RNA was reverse transcribed and isolated cDNA was subjected to quantitative real-time PCR for IL-23p19 and IL-12p35 mRNA levels. Values were normalized to their respective GAPDH levels and are expressed as the mean±SD of three independent determinations. Experiments were repeated three times. FIGS. 10E and 10F are graphs showing the levels of IL-23 protein when rinsed fibrocyte and GD-OF monolayers were incubated with or without 50 μg/ml teprotumumab. **, p<0.01; ***. P<0.001.
as §1

[3] = test system: GD-OF; experiment: as above; conditions: teprotumumab 50 μg/ml or linsitinib 1 μM, 7-9 d
Method: as §2
FIGS. 15A-15C are dose-response curves of teprotumumab effects on IL-6 expression/induction by bTSH (FIG. 15A); HAS2 expression/induction by bTSH (FIG. 15B); IL-12p35 expression/induction by bTSH (FIG. 15C). Following indicated treatments, cellular RNA was harvest from rinsed GD-OF cell layers, reversed transcribed and subjected to real-time PCR. Values were normalized to their respective GAPDH levels.
Graves' disease-orbital fibroblast (GD-OF) preparation and cultivtion GD-OF were isolated from orbital adipose/connective tissues removed during surgical orbital decompression surgery, as described ((Smith, T. J., et al., (2002) The Journal of clinical endocrinology and metabolism 87, 385-392). While the fraction of CD34^+ OF comprising GD-OF strains vary somewhat, the ratios of CD34^+/CD34^− OF are usually 50:50 in the early passages utilized in these studies (passages 2-11). Pure CD34^+ OF and CD34^− OF subsets were generated by staining for 30 m at 4° C. with fluorescein isothiocyanate-conjugated […] CD34 or its isotype control followed by cytometric cell sorting using a FACSAria III (BD Biosciences) instrument. Cells were sorted under sterile conditions into either CD34^+ OF, and CD34 OF subsets which were then re-cultured and treated without or with bTSH (5 mU/mL) or the other test compounds, as indicated, for 6 hrs, as indicated.
as §1

[4] = test system: GD-OF; experiment: HAS1 and HAS2 mRNA, real-time PCR; conditions: teprotumumab 50 μg/ml or linsitinib 1 μM, 7-9 d
Method: (§3) FIGS. 13A-13B are graphs showing the effect of teprotumumab on bTSH induced hyaluronan (HA) production in GD-OF (FIG. 13A) and fibrocytes (FIG. 13B). GD-OF were treated with or without teprotumumab (50 μg/ml) or human Isotype IgG (5 μg/ml) for 7-9 d and stimulated with bTSH (5 mIU/mL) for graded intervals indicated along the abscissa for 0 to 96h. Media were collected and subjected to HA ELISA. Values were normalized to respective cell layer protein levels and expressed as the mean±SD of three independent determinations. Experiments were repeated three times. FIGS. 13C-13F are graphs showing the divergent pattern of hyaluronan synthase (HAS) isoenzyme induction by bTSH in fibrocytes versus GD-OF and effects of teprotumumab (FIGS. 13C and 13D) and linsitinib (FIGS. 13E and 13F). Confluent monolayers of GD-OF and fibrocytes remained untreated or received teprotumumab (50 μg/ml) or linsitinib (1 μM) and human Isotype IgG for 7-9 d. Some cultures were treated with bTSH (5 mIU/mL) for 6h. Cellular RNA was harvested mRNA was reverse transcribed, and cDNA subjected to quantitative real-time PCR for HAS1 and HAS2. Values were normalized to their respective GAPDH levels and are expressed as the mean±SD of three independent determinations. Experiments were repeated three times. *, P<0.05; **, p<0.01; ***. P<0.001.
as §1

[5] = test system: fibrocytes; experiment: HAS1 and HAS2 mRNA, real-time PCR; conditions: teprotumumab 50 μg/ml or linsitinib 1 μM, 7-9 d
Method: as §3, §1

Compound: COc1ccc(C2Nc3ccccc3C(=O)N2Cc2ccco2)cc1COc1c(C)cc(NC(C)=O)cc1C (stereo not drawn) [ML224]
- effect on MHC II, CD80, CD86, PD-L1 expression, teprotumumab compared with TSHR inhibitor ML224 ([1]; 9 d, single agents and in combination): effective

Compound: C[C@]1(O)C[C@@H](c2nc(-c3ccc4ccc(-c5ccccc5)nc4c3)c3c(N)nccn32)C1 [linsitinib]
- induction of MHC II, CD80, CD86, PD-L1 surface proteins ([1]; bTSH-treated fibrocytes): blocked
- induction of MHC II, CD80, CD86, PD-L1 mRNA by bTSH and M22 ([1]; teprotumumab 50 μg/mL, 1H7 5 μg/mL, linsitinib 1 μM): blocked
- IL-12p35 expression, basal and induction by bTSH [2]: increasing
- IL-23p19 expression, basal and induction by bTSH [2]: decreasing
- IL-12p35 expression, basal and induction by bTSH [3]: increasing
- IL-23p19 expression, basal and induction by bTSH [3]: decreasing
- HAS2 expression, single agent or in combination with bTSH [4]: nearly identical
- basal and bTSH-provoked expression of HAS1 [4]: nearly identical
- HAS2 expression, single agent or in combination with bTSH [5]: nearly identical
- basal and bTSH-provoked expression of HAS1 [5]: nearly identical

Compound: rhIGF-1: Recombinant Human IGF-1 (R & D systems)
- induction of MHC II, CD80, CD86, PD-L1 surface proteins by the agent itself ([1]; M22 1 μg/mL (peak at 6 d), IGF-1 10 nM, compared with bTSH): considerably less robust
